A word on the IC50: it is the concentration needed to halve the response being measured.

In the assay the target is T1, C5AR1 (Homo sapiens, UniProt P21730).
T1 construct: host or cells: CHO-K1
T1 sequence (P21730 1-350): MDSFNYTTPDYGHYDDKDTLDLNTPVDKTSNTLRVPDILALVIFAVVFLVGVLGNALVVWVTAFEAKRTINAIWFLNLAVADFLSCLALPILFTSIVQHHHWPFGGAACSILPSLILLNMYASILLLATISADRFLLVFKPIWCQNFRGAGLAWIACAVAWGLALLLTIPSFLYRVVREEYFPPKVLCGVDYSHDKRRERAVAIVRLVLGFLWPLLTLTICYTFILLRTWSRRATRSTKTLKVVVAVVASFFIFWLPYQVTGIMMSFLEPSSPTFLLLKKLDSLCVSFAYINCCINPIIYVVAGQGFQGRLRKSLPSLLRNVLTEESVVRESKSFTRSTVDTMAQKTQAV
The assay can be described thus: hC5a DISCO IC50 assay (PathHunter beta-arrestin, antagonist mode). It is filed as cell-based. The following applies: CHO-K1 C5AR1 beta-arrestin cell line; antagonist vs 1-10 nM C5a agonist; geometric mean values; read-out: C5aR IC50. The method in brief:
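Antagonist added first, then 1-10 nM C5a agonist; cells incubated 1.5 h at 37 °C. Beta-arrestin signal developed with PathHunter detection reagent, 45 min at RT. IC50 in nmol/l from serial antagonist dilutions, reported as geometric mean of several measurements.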
For the molecule `Cc1cccc(F)c1N1CC[C@@H](n2c(=O)n(Cc3ccccc3C(F)(F)F)c3c(OCC4COC(C)(C)O4)nccc32)C1` (stereo partly drawn) [Example 125, 4-(2,2-Dimethyl-[1,3]dioxolan-4-ylmethoxy)-1-[(R)-1-(2-fluoro-6-methyl-phenyl)-pyrrolidin-3-yl]-3-(2-trifluoromethyl-benzyl)-1,3-dihydro-imidazo[4,5-c]pyridin-2-one], the half-maximal inhibitory concentration (IC50) turned out to be 124 nM.
In the case of `COc1cccc2c1n(Cc1ccccc1C(F)(F)F)c(=O)n2[C@@H]1CCN(c2c(F)cccc2CN2CCC2)C1` [Example 108, 1-[(R)-1-(2-Azetidin-1-ylmethyl-6-fluoro-phenyl)-pyrrolidin-3-yl]-4-methoxy-3-(2-trifluoromethyl-benzyl)-1,3-dihydro-benzoimidazol-2-one] it was 360 nM.
As for `COc1cccc2c1n(Cc1ccccc1OC(F)(F)F)c(=O)n2[C@@H]1CCN(c2c(C)cccc2C)C1` [Example 22, 1-[(R)-1-(2,6-Dimethyl-phenyl)-pyrrolidin-3-yl]-4-methoxy-3-(2-trifluoromethoxy-benzyl)-1,3-dihydro-benzoimidazol-2-one], the figure is 30 nM; as for `COc1cccc2c1n(Cc1nccnc1C(F)(F)F)c(=O)n2[C@@H]1CCN(c2c(C)cccc2F)C1` [Example 167, 1-[(R)-1-(2-Fluoro-6-methyl-phenyl)-pyrrolidin-3-yl]-4-methoxy-3-(3-trifluoromethyl-pyrazin-2-ylmethyl)-1,3-dihydro-benzoimidazol-2-one], 6 nM; as for `COc1cccc2c1n(Cc1ccccc1C(F)(F)F)c(=O)n2[C@@H]1CCN(c2c(F)cccc2F)C1` [Example 7, 1-[(R)-1-(2,6-Difluoro-phenyl)-pyrrolidin-3-yl]-4-methoxy-3-(2-trifluoromethyl-benzyl)-1,3-dihydro-benzoimidazol-2-one], 11 nM.
As to `COc1cccc2c1n(Cc1ccccc1C(F)(F)F)c(=O)n2[C@@H]1CCN(c2c(C#N)c(C)nn2C)C1` [Example 87, 5-{(R)-3-[4-Methoxy-2-oxo-3-(2-trifluoromethyl-benzyl)-2,3-dihydro-benzoimidazol-1-yl]-pyrrolidin-1-yl}-1,3-dimethyl-1H-pyrazole-4-carbonitrile], the IC50 turned out to be 629 nM.
As to `CNC(=O)c1cccc2c1n(Cc1ccccc1C(F)(F)F)c(=O)n2[C@@H]1CCN(c2c(F)cccc2C#N)C1` [Example 99, 1-[(R)-1-(2-Cyano-6-fluoro-phenyl)-pyrrolidin-3-yl]-2-oxo-3-(2-trifluoromethyl-benzyl)-2,3-dihydro-1H-benzoimidazole-4-carboxylic acid methylamide], the IC50 is 391 nM.
Consider `COc1cccc2c1n(Cc1ccccc1C(F)(F)F)c(=O)n2[C@@H]1CCN(c2c(F)cccc2N2CCOCC2)C1` [Example 161, 1-[(R)-1-(2-Fluoro-6-morpholin-4-yl-phenyl)-pyrrolidin-3-yl]-4-methoxy-3-(2-trifluoromethyl-benzyl)-1,3-dihydro-benzoimidazol-2-one], for which the half-maximal inhibitory concentration (IC50) amounted to 69 nM.
In the case of `COc1cccc2c1n(Cc1ccccc1C(F)(F)F)c(=O)n2C1CCN(c2c(C)cccc2C)CC1` [Example 2, 1-[1-(2,6-Dimethyl-phenyl)-piperidin-4-yl]-4-methoxy-3-(2-trifluoromethyl-benzyl)-1,3-dihydro-benzoimidazol-2-one] it was 18 nM.
As for `COc1cccc2c1n(Cc1ccccc1OC(F)(F)F)c(=O)n2[C@@H]1CCN(c2c(F)cccc2F)C1` [Example 23, 1-[(R)-1-(2,6-Difluoro-phenyl)-pyrrolidin-3-yl]-4-methoxy-3-(2-trifluoromethoxy-benzyl)-1,3-dihydro-benzoimidazol-2-one], the figure is 8 nM.
In the case of `COc1ncnc(C)c1N1CCC(n2c(=O)n(Cc3ccccc3C(F)(F)F)c3c(OC)cccc32)CC1` [Example 249, 4-Methoxy-1-[1-(4-methoxy-6-methyl-pyrimidin-5-yl)-piperidin-4-yl]-3-(2-trifluoromethyl-benzyl)-1,3-dihydro-benzoimidazol-2-one] it was 273 nM; in that of `COc1cccc2c1n(Cc1ccccc1C(F)(F)F)c(=O)n2C1CCN(C(=O)OC(C)(C)C)CC1` [Example 1, 4-[4-Methoxy-2-oxo-3-(2-trifluoromethyl-benzyl)-2,3-dihydro-benzoimidazol-1-yl]-piperidine-1-carboxylic acid tert-butyl ester], 621 nM; in that of `Cc1cccc(F)c1N1CC[C@@H](n2c(=O)n(Cc3ccccc3C(F)(F)F)c3c(OCC(O)CO)cccc32)C1` (stereo partly drawn) [Example 152, 4-(2,3-Dihydroxy-propoxy)-1-[(R)-1-(2-fluoro-6-methyl-phenyl)-pyrrolidin-3-yl]-3-(2-trifluoromethyl-benzyl)-1,3-dihydro-benzoimidazol-2-one], 38 nM.
Take `COc1cccc2c1n(Cc1ccccc1C(F)(F)F)c(=O)n2[C@@H]1CCN(c2c(F)cccc2CN(C)CCO)C1` [Example 107, 1-[(R)-1-(2-Fluoro-6-{[(2-hydroxy-ethyl)-methyl-amino]-methyl}-phenyl)-pyrrolidin-3-yl]-4-methoxy-3-(2-trifluoromethyl-benzyl)-1,3-dihydro-benzoimidazol-2-one]: the IC50 amounted to 1320 nM.
In the case of `COc1cccc2c1n(Cc1ccccc1C(F)(F)F)c(=O)n2[C@@H]1CCN(c2c(F)cncc2F)C1` [Example 34, 1-[(R)-1-(3,5-Difluoro-pyridin-4-yl)-pyrrolidin-3-yl]-4-methoxy-3-(2-trifluoromethyl-benzyl)-1,3-dihydro-benzoimidazol-2-one] it was 27 nM; in that of `COc1cccc2c1n(Cc1ccccc1C(F)(F)F)c(=O)n2[C@@H]1CCN(c2c(F)cccc2C=O)C1` [Example 83, 3-Fluoro-2-{(R)-3-[4-methoxy-2-oxo-3-(2-trifluoromethyl-benzyl)-2,3-dihydro-benzoimidazol-1-yl]-pyrrolidin-1-yl}-benzaldehyde], 23 nM; in that of `COc1cccc2c1n(Cc1ncccc1OC(C)C)c(=O)n2C1CCN(c2c(C)cccc2F)CC1` [Example 183, 1-[1-(2-Fluoro-6-methyl-phenyl)-piperidin-4-yl]-3-(3-isopropoxy-pyridin-2-ylmethyl)-4-methoxy-1,3-dihydro-benzoimidazol-2-one], 14 nM.
As for `COc1cccc2c1n(Cc1ccccc1C(F)(F)F)c(=O)n2C1CCCN(C(=O)OC(C)(C)C)C1` (centres unmarked) [Example 214, 3-[4-Methoxy-2-oxo-3-(2-trifluoromethyl-benzyl)-2,3-dihydro-benzoimidazol-1-yl]-piperidine-1-carboxylic acid tert-butyl ester], the figure is 205 nM; as for `Cc1cccc(F)c1N1CC[C@@H](n2c(=O)n(Cc3ccccc3C(F)(F)F)c3c(OCCN(C)C)nccc32)C1` [Example 120, 4-(2-Dimethylamino-ethoxy)-1-[(R)-1-(2-fluoro-6-methyl-phenyl)-pyrrolidin-3-yl]-3-(2-trifluoromethyl-benzyl)-1,3-dihydro-imidazo[4,5-c]pyridin-2-one], 659 nM.
In the case of `COCCNc1nccc2c1n(Cc1ccccc1C(F)(F)F)c(=O)n2[C@@H]1CCN(c2c(C)cccc2F)C1` [Example 207, 1-[(R)-1-(2-Fluoro-6-methyl-phenyl)-pyrrolidin-3-yl]-4-(2-methoxy-ethylamino)-3-(2-trifluoromethyl-benzyl)-1,3-dihydro-imidazo[4,5-c]pyridin-2-one], the IC50 was found to be 508 nM.
Turning to `COc1cccc2c1n(Cc1ccccc1C(F)(F)F)c(=O)n2C1CCN(c2ccccc2)CC1` [Example 4, 4-Methoxy-1-(1-phenyl-piperidin-4-yl)-3-(2-trifluoromethyl-benzyl)-1,3-dihydro-benzoimidazol-2-one], the IC50 stood at 131 nM.
In the case of `COc1ccccc1Cn1c(=O)n([C@@H]2CCN(c3c(C)cccc3F)C2)c2cc[nH]c(=O)c21` [Example 81, 1-[(R)-1-(2-Fluoro-6-methyl-phenyl)-pyrrolidin-3-yl]-3-(2-methoxy-benzyl)-3,5-dihydro-1H-imidazo[4,5-c]pyridine-2,4-dione] it was 2430 nM; in that of `COc1cccnc1N1CCC(n2c(=O)n(Cc3ccccc3C(F)(F)F)c3c(OC)cccc32)CC1` [Example 233, 4-Methoxy-1-(3′-methoxy-3,4,5,6-tetrahydro-2H-[1,2′]bipyridinyl-4-yl)-3-(2-trifluoromethyl-benzyl)-1,3-dihydro-benzoimidazol-2-one], 195 nM.
In the case of `COc1cccc2c1n(Cc1cnccc1C(F)(F)F)c(=O)n2[C@@H]1CCN(c2c(C)cccc2F)C1` [Example 203, 1-[(R)-1-(2-Fluoro-6-methyl-phenyl)-pyrrolidin-3-yl]-4-methoxy-3-(4-trifluoromethyl-pyridin-3-ylmethyl)-1,3-dihydro-benzoimidazol-2-one] it was 6 nM; in that of `COc1cccc2c1n(Cc1ccccc1C(F)(F)F)c(=O)n2C1CC2CC1CN2C(=O)OC(C)(C)C` (centres unmarked) [Example 188, 5-[4-Methoxy-2-oxo-3-(2-trifluoromethyl-benzyl)-2,3-dihydro-benzoimidazol-1-yl]-2-aza-bicyclo[2.2.1]heptane-2-carboxylic acid tert-butyl ester], 313 nM; in that of `COc1ccccc1Cn1c(=O)n([C@@H]2CCN(c3c(F)cccc3C#N)C2)c2cccc(OC)c21` [Example 109, 3-Fluoro-2-{(R)-3-[4-methoxy-3-(2-methoxy-benzyl)-2-oxo-2,3-dihydro-benzoimidazol-1-yl]-pyrrolidin-1-yl}-benzonitrile], 61 nM.
